Measured values: patent US9433607B2, “Composition for prevention or treatment of cancer comprising N-methylenenaphtho[2,1-b]furan-2-carbohydrazide derivatives as an active ingredient” (KOREA RESEARCH INSTITUTE OF BIOSCIENCE AND BIOTECHNOLOGY, priority 2012, dated 2016)

Key:
[1] = system: SNU-484; assay: Anti-proliferative MTT assay, SNU-484; format: cell-based; settings: 96 h, SNU-484, Stomach, 4 days
Description: (§1) Various cancer cell lines (rectal cancer, prostate cancer, breast cancer, lung cancer, stomach cancer, liver cancer, leukemia, brain cancer, and glioma cell lines) were cultured in microtiter plate (1-3×10^3 cells/well), to which ethyl(2-methyl-3{(E)-[(naphtho[2,1-b]furan-2-ylcarbonyl)hydrazono]methyl}-1H-indole-1-yl)acetate was treated. The culture continued for 4 days. Cytotoxicity was investigated by MTT assay by the same manner as described in Example <1-2>. IC50 was calculated by long-dose response curve. The data presents the mean value obtained from the assay performed in triplicate.

[2] = system: PC-3; assay: Anti-proliferative MTT assay, PC-3; format: cell-based; settings: Homo sapiens, 96 h, PC-3, Prostate, 4 days
Description: as §1

[3] = system: caspase-3 and PARP; assay: Immunoblotting of apoptosis related proteins; format: cell-based; settings: HeLa cells
Description: Particularly, HeLa cells were treated with DMSO or ethyl(2-methyl-3{(E)-[(naphtho[2,1-b]furan-2-ylcarbonyl)hydrazono]methyl}-1H-indole-1-yl)acetate for 24 or 48 hours. Then, immunoblotting was performed to investigate the expressions of caspase-3 and PARP, the apoptosis related proteins. PARP (poly(ADP-ribose)polymerase) is one of the downstream cleavage proteins derived from caspase3. Immunoblotting was performed using caspase-3, PARP, and GAPDH specific antibodies.

[4] = system: Cdc25C, Cyclin B1, and Plk1 (Polo-like kinase 1); assay: Immunoblotting of proteins regulating cell division; format: cell-based; settings: HeLa cells, 17 hours
Text: The effect of ethyl(2-methyl-3{(E)-[(naphtho[2,1-b]furan-2-ylcarbonyl)hydrazono]methyl}-1H-indole-1-yl)acetate on Cdc25C, Cyclin B1, and Plk1 (Polo-like kinase 1), the proteins regulating cell division, was investigated. When Cdc25C is activated in the course of cell division, Cdc25C is hyperphosphorylated so that its movement on SDS-PAGE is slowed down. Based on that principal, Cdc25C activation was investigated. Referring that the expressions of Cyclin B1 and Plk1 are differently regulated in each stage of cell cycle, the expression of each protein was measured. The levels of Cyclin B1 and Plk1 were the lowest in G1 phase.
HeLa cells were treated with DMSO, nocodazole (NOC), or ethyl(2-methyl-3{(E)-[(naphtho[2,1-b]furan-2-ylcarbonyl)hydrazono]methyl}-1H-indole-1-yl)acetate for 17 hours. The cells were harvested, followed by immunoblotting using cyclin B1, Cdc25C, Plk1, and GAPDH specific antibodies. GAPDH was used as a loading control.

[5] = system: A-172; assay: Anti-proliferative MTT assay, A-172; format: cell-based; settings: Homo sapiens, 96 h, A-172, Brain, 4 days
Description: as §1

[6] = system: FVB/N mouse induced with skin tumor; assay: DMBA/TPA induced skin tumor model; format: in vivo
Description: In this invention, the male FVB/N mice (6-7 weeks, Jackson Laboratory, USA) were raised under the condition of 12 hr bright lighting/12 hr dim lighting at the temperature of 24±2° C. with the humidity of 50±10% with water and feed provided freely. The care and process of the test animal was reviewed and approved by Institutional Animal Care and Use Committee (IACUC), Korea Research Institute of Bioscience and Biotechnology (KRIBB). DMBA (7,12-dimethylbenz[α]anthracene), TPA (12-O-tetradecanoylphorbol-13-acetate) and cholchicine were purchased from Sigma-Aldrich, and the synthesized ethyl(2-methyl-3{(E)-[(naphtho[2,1-b]furan-2-ylcarbonyl)hydrazono]methyl}-1H-indole-1-yl)acetate was provided from Dr. Thimmegowda.
Particularly, the dorsal skin of the said FVB/N mouse was shaved two days before the experiment. 100 μg of DMBA was added to 0.2 ml of acetone, which was treated to the mouse by single-local administration for 1 week to induce tumor. 5 fig of TPA was added to 0.2 ml of acetone, which was treated to the above mouse induced with tumor […] for 15 weeks to grow the tumor. 500 nM of ethyl(2-methyl-3{(E)-[(naphtho[2,1-b]furan-2-ylcarbonyl)hydrazono]methyl}-1H-indole-1-yl)acetate or cholchicine was dissolved in 0.2 ml of acetone, which was treated to the above mouse locally for 30 minutes each time for 15 weeks. Each group was composed of at least 10 mice and total 4 groups were prepared:
Group 1: DMBA and acetone treated group (negative control)
Group 2: DMBA and TPA treated group (positive control)
Group 3: DMBA/TPA and cholchicine treated group (experimental group 1)
Group 4: DMBA/TPA and ethyl(2-methyl-3{(E)-[(naphtho[2,1-b]furan-2-ylcarbonyl)hydrazono]methyl}-1H-indole-1-yl)acetate treated group (experimental group 2).
In addition, skin tumor such as papilloma was checked every week during the whole period of experiment. The tumor in the size of at least 2 mm was judged as positive. 15 weeks later, the mice were sacrificed with CO2. The skin tumor was extracted for histopathological/biochemical analysis.
The average number and the volume of tumor in each group were calculated.
Each mouse group was treated with different materials by the same manner as described in Example <8-2>, followed by observation for 15 weeks, and then the number of mice having skin tumor was counted. Tumor development rate was presented as %.
The mouse induced with skin tumor by the same manner as described in Example <8-2> was treated with DMBA, and then the induced tumors were observed and weighed for 15 weeks to produce the average weight of tumor.

[7] = system: HeLa cells; assay: Immunofluorescence of intracellular microtubules and chromosomes; format: cell-based
Description: To investigate the effect of ethyl(2-methyl-3{(E)-[(naphtho[2,1-b]furan-2-ylcarbonyl)hydrazono]methyl}-1H-indole-1-yl)acetate on intracellular microtubules, HeLa cells were treated with DMSO, Taxol (100 μM), nocodazole (200 ng/ml), or ethyl(2-methyl-3{(E)-[(naphtho[2,1-b]furan-2-ylcarbonyl)hydrazono]methyl}-1H-indole-1-yl)acetate (5 μM) for 17 hours. After fixing the cells, the cells were immuno-stained with Alexa Fluor 488-conjugated anti-tubulin antibody and Hoechst 33342 to confirm α-tubulin and chromosomes.

[8] = system: HepG2; assay: Anti-proliferative MTT assay, HepG2; format: cell-based; settings: Homo sapiens, 96 h, HepG2, Liver, 4 days
Description: as §1

[9] = system: SNU-601; assay: Anti-proliferative MTT assay, SNU-601; format: cell-based; settings: 96 h, SNU-601, Stomach, 4 days
Description: as §1

[10] = system: U373MG; assay: Anti-proliferative MTT assay, U373MG; format: cell-based; settings: Homo sapiens, U373 MG, 96 h, Brain, 4 days
Description: as §1

[11] = system: Various cancer cell lines; assay: Anti-proliferative MTT assay, various cancer cell lines (summary); format: cell-based; settings: 96 h, range over the cell lines, 4 days, read-out: IC50 across cancer cell lines
Description: as §1

For `CCOC(=O)Cn1c(C)c(/C=N/NC(=O)c2cc3c(ccc4ccccc43)o2)c2ccccc21` [STK899704], the IC50 [1] was 221 nM, the IC50 [2] was 650 nM and the PARP cleavage ([3]; 48 hours) was “significantly increased”. For the same compound, the caspase-3 cleavage ([3]; 48 hours, 0.5 μM) was “significantly increased”, the caspase-3 cleavage ([3]; 48 hours, 1 and 5 μM) was “more significantly increased” and the caspase-3 cleavage ([3]; within 24 hours) was “not observed”. For the same compound, the “effect on Cdc25C, cyclin B1 and Plk1 (immunoblotting)” value [4] was “Cdc25C was phosphorylated and cyclin B1 and Plk1 were accumulated”, the IC50 [5] was 603 nM and the “number of skin tumor” value ([6]; 500 nM in 0.2 ml acetone, local, 15 weeks) was “significantly reduced”. For the same compound, the “weight of tumor compared with positive control” value ([6]; 15 weeks) was “significantly lighter”, the “average volume of skin tumor reduced compared with positive control” value ([6]; 15 weeks, 500 nM local) was 20.3% and the “decrease of average number of skin tumor compared with positive control” value ([6]; 15 weeks, 500 nM local) was 4.75 times. The “average weight of tumor as fraction of positive control” value ([6]; 15 weeks, experimental group 2) was 1/10, the “week to which tumor formation was postponed” value ([6]; tumor of at least 2 mm, positive control from 8th week) was 10 week and the “effect on microtubules (immunofluorescence over concentrations)” value ([7]; 1 μM) was “all the microtubules were destroyed”. The “effect on microtubules and chromosomes (immunostaining)” value ([7]; 17 hours, Taxol 100 μM, nocodazole 200 ng/ml, compound 5 μM) was “chromosomes were not fully condensed and microtubules were destroyed”, the IC50 [8] was 820 nM and the IC50 [9] was 773 nM. It also gave an IC50 [10] of 517 nM and an IC50 [11] of 220 to 1060 nM.
